Values after ≈ are worked out from the molar mass of the structure shown. Where two headings read alike, the source gives them in different places. Square brackets hold non-standard residues; d marks the D form. Peptide text beside a SMILES is read from it.
How the values were obtained:
[1] = system: Madin-Derby canine kidney epithelial (MDCK) cells
Procedure: The same procedure was also carried out using mammalian Madin-Derby canine kidney epithelial (MDCK) cells (ATCC Accession No. CCL34). The MDCK cells were cultured until confluent in MEM media supplemented with 10% fetal calf serum (FCS) and L-glutamine. The cells were harvested and resuspended to approximately 1-2×10^6 cells/mL in RPMI media, treated with XMP.391 or XMP.445 at concentrations varying from 5 μg/mL to 100 μg/mL, and incubated for 1 hour. The cells were then stained with DiOC6(3) for 30 minutes and fluorescence intensity was determined in the same manner as described above for C. albicans.
(§1) The relative effect of varying concentrations of the antifungal agent miconazole on fungal C. albicans cells treated with membrane potential indicator dye DiOC6(3) [Molecular Probes], mammalian MDCK cells treated with DiOC6(3) and mammalian MDCK cells treated with PI, was assessed as described above in Examples 1 and 2, except that fungal C. albicans or mammalian MDCK cells were resuspended to a concentration of 1×10^6 cells/mL.

C. albicans SLU#1 strain = type: cell-based, Candida albicans
[2] = system: Candida albicans strain SLU#1; assay: Flow cytometry of fungal cells treated with test agent and membrane potential dye DiOC6(3); type: cell-based; settings: for concentration at which loss of fungal cell viability occurs: C. albicans SLU#1; for change in DiOC6(3) fluorescence intensity (mean channel from baseline) vs. concentration: C. albicans, 1 hour incubation with agent, 10 ng/mL DiOC6(3), FL1 530 nm, FIG. 1 / FIG. 3
Procedure: A stock fungal cell suspension was prepared as follows. Fungi (Candida albicans strain SLU#1) were cultured on Sabouraud's dextrose agar plates [1 L water, 10 g neopeptone, 20 g dextrose, 15 g Bacto Agar]. One or two colonies from the agar plate were inoculated into 5 mL of Sabouraud's dextrose broth (SDB) [1 L water, 10 g neopeptone, 20 g dextrose] in a sterile 10 mL polypropylene tube and incubated for about 18 hours at 30° C. After this incubation, 4 mL of the fungal culture was inoculated into a flask containing 100 mL of SDB and incubated for about 5 hours or until log growth phase was reached. The culture was centrifuged at 3000 rpm for 5 minutes (Sorvall RT6000B centrifuge), the supernatant was decanted and the pellets were resuspended in a total of 30 mL of SDB. Fungal cell concentration was determined either by absorbance at 570 nm or by diluting 1:10 with Trypan Blue and counting the number of fungal cells using a hemacytometer. The suspension was diluted with SDB to obtain a stock fungal cell suspension of approximately 1-2×10^6 CFU/mL.
Stock 1 mg/mL solutions of peptides XMP.391 and XMP.445 were prepared in saline, and six 2-fold serial dilutions were prepared using phosphate buffered saline (PBS). The fungal cell suspension was divided into 1 mL aliquots, and approximately 20 μL of each serial dilution of XMP.391 or XMP.445 peptide solution was added to an aliquot of fungal cell suspension to obtain final peptide concentrations of 0.313, 0.625, 1.25, 2.5, 5, 10 and 20 μg/mL in the aliquots. No peptide solution was added to the auto-fluorescence and baseline controls. The aliquots were incubated for 1 hour at 30° C. After the incubation, all aliquots were centrifuged at 3000 rpm for 5 minutes (Sorvall RT6000B) and the supernatant removed. The auto-fluorescence control aliquot was resuspended in 1 mL of SDB; the remainder of the samples and the baseline control were resuspended in 1 mL of 10 ng/mL DiOC6(3)/SDB. The auto-fluorescence control thus contained fungal cells in SDB alone (without XMP peptide and without dye), while the baseline control contained fungal cells with dye (but without XMP peptide). […]
The samples were analyzed for fluorescence on the FACScan flowcytometer [Becton-Dickinson, Mountain View, Calif.] using the fl1 detector at a wavelength of 530 nm using the following parameters:
The auto-fluorescence control was used for gating and fluorescence sensitivity was determined using the baseline control. The percent change in fluorescent intensity, expressed as mean channels, was determined by dividing the difference between the sample and baseline values by the baseline value: (sample fl1−baseline fl1)/baseline fl1×100.

C. albicans SLU#1 = assay: Propidium iodide (PI) uptake by fungal cells, flow cytometry; type: cell-based, Candida albicans; settings: C. albicans SLU#1, 10 μg/mL PI, FL2 585 nm; FIG. 2
Text: As in Example 1, the auto-fluorescence control contained fungal or mammalian cells in media alone (without XMP peptide and without PI), while the baseline control contained fungal or mammalian cells with PI (but without XMP peptide). Because it is a viability dye, PI is taken up only when cells are dying or dead; the fluorescent intensity of PI-treated samples should increase with the number of dead cells and should be maximal with 100% dead cells. Thus, for this experiment, a positive control was also prepared (containing 100% dead cells) by resuspending cells in 1 mL of 70% ethanol during the last 10 minutes of the initial 1-hour incubation; this positive control thus contained 100% dead cells with PI (but without XMP peptide). Samples were analyzed for PI uptake on the FACScan using the fl2 detector at a wavelength of 585 nm. The auto-fluorescence sample was used for gating, while the fluorescence sensitivity was determined by the positive control and the PI uptake threshold was determined by the baseline control. The percent change in fluorescent intensity in mean channels was determined using the same equation used in Example 1, and the percentage of cells with PI uptake (ie., dead cells) was calculated.

MDCK cells = system: MDCK cells
Procedure: as §1

CACO-2 and MDCK cells = type: in vitro ADME
Procedure: Various BPI-derived peptides were screened for oral absorption in in vitro screening assays using CACO-2 and MDCK cells. Cultured monolayers of CACO-2 (Human colon carcinoma) [Audus, K. L., et al. Pharm. […] The cells were grown to confluency and allowed to differentiate. The integrity of the monolayers was determined by measuring the transepithelial resistance. The cells were incubated with peptide on the apical side for 2.5 hours in MDCK screening or 4 hours for CACO-2 screening. The transepithelial transport of the peptide was measured by quantitative HPLC analysis of the incubation media on the basolateral side of the cells. Radiolabelled mannitol and cortisone were used as positive controls.

Candida albicans, SLU-1 = assay: 28-day comparative survival efficacy study in mice systemically infected with Candida albicans, oral gavage; type: in vivo; settings: for mortality vs dextrose-treated controls: male DBA/2 mice, eight times, 28 days
Procedure: XMP.445 was tested for activity upon oral administration (oral activity) in a 28-day comparative survival efficacy study in mice systemically infected with Candida albicans. Specifically, male DBA/2 mice (Charles River Laboratories) six weeks of age were dosed with 7.9×10^4 Candida albicans, SLU-1 in 100 μl intravenously via the tail vein in a single dosage on day 0. Treatment began immediately thereafter with 400 μl oral gavage of either 0.5% dextrose, or XMP.445 in 0.5% dextrose at levels of either 10 mg/kg or 20 mg/kg every other day for a total of eight times. Amphotericin B (Fungizone®) was administered intravenously at 0.5 mg/kg as a positive control every other day for a total of eight times. Twice-day monitoring (once daily on weekends and holidays) for mortality was performed.

fungal cells = assay: Confocal microscopy localization of membrane potential indicator dye in fungal cells; type: cell-based; settings: DiOC6(3) 10 ng/mL or MitoTracker Red CM-H2Xros 1 μg/mL, 1 hour peptide incubation
Procedure: Confocal microscopy provides focused fluorescence detection, one plane or slice at a time, at a focus level that allows unobstructed localization of fluorescence within cells. A suspension of 1×10^6 fungal cells/mL was prepared as described above in Example 1 and 1 mL was dispensed into each of four Eppendorf microcentrifuge tubes. Two μL of 1 mg/mL XMP.445 (in saline) was added to two tubes and all four tubes were incubated for 1 hour at 30° C. After the incubation, all tubes were centrifuged in an Eppendorf 5415 centrifuge. The supernatant was removed and the pellet resuspended in 1 mL of SDB. The membrane potential indicator dye DiOC6(3) (diluted in SDB from a stock solution of 2 mg/mL in EtOH) was added to one set of peptide-treated and untreated tubes to a final concentration of 10 ng/mL. The membrane potential indicator dye MitoTracker™ Red CM-H2Xros (from a freshly prepared solution of 500 μg/mL in DMSO) was added to another set of peptide-treated and untreated tubes to a final concentration of 1 μg/mL. The tubes were incubated at 30° C. for 30 min. After the incubation the tubes were centrifuged and the supernatant removed. The pellets were resuspended in 100 μL of 30% glycerol/PBS solution. Three μL from each tube was pipetted onto a microscope slide with a No. 1 cover glass and placed onto a Zeiss 510 Confocal Microscope that uses LSM Version 2.01 software. […]

bacterial growth = settings: background statement; cited from earlier work
[3] = background statement; cited from earlier work

CC[C@H](C)[C@H](NC(=O)[C@H](CC(C)C)NC(=O)[C@H](Cc1c[nH]c2ccccc12)NC(=O)CNC(=O)[C@@H](NC(=O)[C@@H](N)CCCCN)C(C)C)C(=O)N[C@@H](CCC(N)=O)C(=O)N[C@@H](CC(C)C)C(=O)N[C@@H](Cc1ccccc1)C(=O)N[C@@H](Cc1c[nH]cn1)C(=O)N[C@@H](CCCCN)C(=O)N[C@@H](CCCCN)C(=O)O [XMP.391] (H-KVGWLIQLFHKK-OH; N-terminus and C-terminus assumed)
change in DiOC6(3) fluorescence intensity in mammalian cells [1]: no substantial increase in fluorescence intensity | minimum fungicidal concentration (C. albicans SLU#1 strain): 2 µg/mL (≈ 1.34 µM)

CC[C@H](C)[C@H](NC(=O)[C@H](CC(C)C)NC(=O)[C@H](Cc1c[nH]c2ccccc12)NC(=O)CNC(=O)[C@H](NC(=O)[C@H](N)CCCCN)C(C)C)C(=O)N[C@@H](CCC(N)=O)C(=O)N[C@@H](CC(C)C)C(=O)N[C@@H](Cc1ccccc1)C(=O)N[C@@H](Cc1c[nH]cn1)C(=O)N[C@H](CCCCN)C(=O)N[C@H](CCCCN)C(=O)O [XMP.445] (H-[dK][dV]GWLIQLFH[dK][dK]-OH; N-terminus and C-terminus assumed)
concentration at which loss of fungal cell viability occurs [2]: about 4 μg/mL | change in DiOC6(3) fluorescence intensity (mean channel from baseline) vs. concentration [2]: concentration-dependent increase in fluorescence intensity | change in DiOC6(3) fluorescence intensity in mammalian cells [1]: no substantial increase in fluorescence intensity | minimum fungicidal concentration (C. albicans SLU#1 strain): 4 µg/mL (≈ 2.67 µM) | fungal cell viability by PI uptake (C. albicans SLU#1): reduction of fungal cell viability or fungal cell death | mammalian cell viability by PI uptake (MDCK cells; MDCK cells, PI, XMP.445 even at a concentration of 50-fold or greater): did not substantially affect viability of mammalian cells | intestinal absorption screening outcome (CACO-2 and MDCK cells): potential orally available compound | mortality vs dextrose-treated controls (Candida albicans, SLU-1; oral gavage 10 mg/kg every other day): significant improvement (p-value of 0.025) | mortality vs dextrose-treated controls (Candida albicans, SLU-1; oral gavage 10 mg/kg or 20 mg/kg every other day): improvements in mortality compared with the dextrose-treated controls | oral activity (study conclusion) (Candida albicans, SLU-1; mice systemically infected with C. albicans, oral gavage): has oral antifungal activity | fluorescence intensity and localization by confocal microscopy vs untreated cells (fungal cells): increased fluorescence intensity that was localized at the mitochondria

Clc1ccc(COC(Cn2ccnc2)c2ccc(Cl)cc2Cl)c(Cl)c1 (stereo not drawn) [miconazole, reference compound]
concentration at which loss of fungal cell viability occurs [2]: less than or equal to 1 μg/mL | change in DiOC6(3) fluorescence intensity (mean channel from baseline) vs. concentration [2]: concentration-dependent increase in fluorescence intensity | mammalian cell viability by PI uptake (MDCK cells): increase in fluorescence intensity indicating cell death

gentamicin
concentration required to produce a therapeutic effect (bacterial growth): 8 µg/mL | concentration that produces a toxic effect [3]: 12000 ng/mL
